{"source": "patent US11667615B2", "about": "“Certain (2S)-N-[(1S)-1-cyano-2-phenylethyl]-1,4-oxazepane-2-carboxamides as dipeptidyl peptidase 1 inhibitors” (AstraZeneca AB, priority 2014, dated 2023)", "origin": "cited, not measured here", "details": "QWBA studies; concomitant ultra-structural changes by electron microscopy", "data": [{"smiles": "CC(c1ccc(Cl)c(Cl)c1)N1N=C(N)CC1=O", "note": "(stereo not shown) [muzolimine]", "values": [{"measurement": "retention in the aorta", "result": "retained selectively in the aorta"}]}]}
